Laboratory results as given in US20060210479A1 (Dow Global Technologies Inc., priority 2004, published 2006).
Like-named read-outs stand apart in the source and are kept apart here.

Tests used:
[1] = test system: cancer cell lines (CaCo-2, Du-145, SK-MES, HLaC, C33-A); details: relative to control cells
HLAC cells [2] = details: for EuQCTME Cell Binding (fluorescence per well): 1 mM
RBL-2H3 cell line = experiment: Chelate permeability: fluorescence of cytoplasm and membrane fractions; assay type: cell-based, rat
Description: Tb-PCTMB (Tb(III) 3,6,9-tris(methylene phosphonic acid n-butyl ester)-3,6,9,15-tetraazabicyclo[9.3.1]pentadeca-1(15),11,13-triene) was tested for permeability to abnormal and disease-state cells.
RBL-2H3 is a rat basophilic leukemia cell line. These cells were grown in Iscove's Medium supplemented with 2 mM L-glutamnine, penicillin/streptomycin (100 IU/mL, 100 μg/mL) and 10% FBS. Cells were maintained at 5% CO2 and 95% humidity. PZ-HPV-7 cell line was derived from epithelial cells cultured from normal prostate tissue. They were grown in Keratinocyte-Serum Free Medium with human recombinant EGF and bovine pituitary extract supplemented with 50 μg/mL gentamicin and penicillin/streptomycin (100 IU/mL, 100 μg/mL). All media and supplements were purchased from Gibco BRL (Grand Island, N.Y., USA). All cell lines were obtained from ATCC and were maintained at 37° C., 5% CO2 and 95% humidity.
Cells were grown to confluence in T-150 flasks (about 2×10^6 cells). […] Cells were then removed from the flask by manual scraping. Cells were transferred to a 50-mL conical tube and centrifuged (400×g) for 5 minutes and the test material removed.
Cells were grown as described herein (Example 1). Cells were grown to confluence in T-150 flask (about 2×10^6 cells). […] Cells were then removed from the flask by manual scraping. Cells were transferred to a 50-mL conical tube and centrifuged (400×g) for 5 minutes and the test material removed.
Furthermore, one analogue, QCTMP (FIG. 26), having lesser lipophilic character (a free phosphonic acid moiety) was evaluated. […] In this study, the cytoplasm and membrane fractions were extracted by Mem-PER Eukaryotic Membrane Protein Extraction Reagent Kit as described by the manufacturers (Pierce Biotechnology, Rockford, Ill.) and analyzed by a Fluor-S Multilmager.

[3] = test system: normal cheek pouch tissue; details: 2 mM solution topical, 10 minutes, readings Adjusted Volume CNT*mm2
C33-A cells [4] = details: for EuQCTME Cell Binding (fluorescence per well): 1 mM
Caco-2 cells [5] = details: 1 mM, 1 h
HLAC cells [6] = details: 1 mM EuQCTME, up to 240 min
Description: (§1) Cells were counted and plated in a 20×100 mm cell culture dish at a density of about 2×10^6 cells.
(§2) After incubation cells were collected by trypsinization and gently centrifuged (about […]) for 10 minutes. The cell supematant was discarded, and the resulting cell pellet was washed in cold PBS (phosphate buffered saline). The cell pellet was centrifuged again (about 2000 rpm) for 10 minutes. The PBS supernatant was discarded and the cold PBS wash was repeated and centrifuged as above. After discarding the PBS supernatant, the resulting cell pellet was used for NE-PER extraction (Pierce, Rockford, Ill.) according to the manufacturer's instructions.
(§3) The resulting nuclear and cytoplasmic fractions from each time point were then placed into the wells of a 96-well white plate. Due to the volume of lysate available for measurement, the fractions were diluted 1:4 in HEPES binding buffer for a total volume of 100 liL. […] The following settings were optimized for measurement: excitation at 320 nm (band width: 35 nm), emission at 595 nm (bandwidth: 35 nm), gain 110, lag time 1 μs, integration time 2000 μs, # of flashes: 1.
(§4) Because lysate volume was in limited quantity and protein concentration was relatively low, absorbances for protein measurements were read using the formula of Kalckar (1.45 OD280-0.74OD260=mg protein/mL). Each time point measurement above (in RFU) was normalized to its corresponding protein content and recalculated as RFU/μg protein.

C33-A cells [7] = details: 1 mM EuQCTME, up to 240 min
Description: as §1, §2, §3, §4

DU-145 cells = details: 1 mM EuQCTME, up to 240 min
Description: as §1, §2, §3, §4

SK-MES cells [8] = details: 1 mM EuQCTME, up to 240 min
Description: as §1, §2, §3, §4

Caco-2 cells [9] = details: 1 mM EuQCTME, up to 240 min
Description: as §1, §2, §3, §4

NCM460 cells = details: 1 mM EuQCTME, up to 240 min
Description: as §1, §2, §3, §4

Caco-2 cell line = experiment: Chelate permeability: fluorescence of cytoplasm and membrane fractions; assay type: cell-based, human
SK-MES cells [10] = details: for EuQCTME Cell Binding (fluorescence per well): 1 mM
[11] = test system: DMBA-induced tumor tissue of buccal cheek pouch; details: 2 mM solution topical, 10 minutes; for Fluorescence/mg Cytoplasm / Fluorescence/mg Membrane: readings Adjusted Volume CNT*mm2
T84 cell line = experiment: Chelate permeability: fluorescence of cytoplasm and membrane fractions; assay type: cell-based, human; details: 1 mM chelate, 2 h, Table 4
[12] = 0-2000 μM, 2 hours, compared to PZ-HPV-7

## CCOP(=O)([O-])CN1CCN(Cc2ccc3cc(C)ccc3n2)CCN(CP(=O)([O-])OCC)CCN(CP(=O)([O-])OCC)CC1.[Eu+3] [Eu-QCTME, Eu(III) N-(6-methyl-2-quinolylmethyl)-N′,N″,N′″-tris(methylenephosphonic acid ethyl ester)-1,4,7,10-tetraazacyclododecane]
[1]
  time of initial burst of cell-bound fluorescence: ≤ 5 min
HLAC cells [2]; 2 min
  EuQCTME Cell Binding (fluorescence per well): 15,807
HLAC cells [2]; 5 min
  EuQCTME Cell Binding (fluorescence per well): 20,493
HLAC cells [2]; 15 min
  EuQCTME Cell Binding (fluorescence per well): 13,704
HLAC cells [2]; 30 min
  EuQCTME Cell Binding (fluorescence per well): 6,300
HLAC cells [2]; 45 min
  EuQCTME Cell Binding (fluorescence per well): 10,068
HLAC cells [2]; 60 min
  EuQCTME Cell Binding (fluorescence per well): 3,206
HLAC cells [2]; 120 min
  EuQCTME Cell Binding (fluorescence per well): 21,877
HLAC cells [2]; 180 min
  EuQCTME Cell Binding (fluorescence per well): 6,510
HLAC cells [2]; 240 min
  EuQCTME Cell Binding (fluorescence per well): 2,401
HLAC cells [2]; over 240 min
  Totals: Normalized total area under each curve (AUC): 51
RBL-2H3 cell line; 0-2000 μM, 2 hours
  fluorescence in the membrane fractions, dose response: detectable quantity of fluorescence
RBL-2H3 cell line; [12]
  fluorescence in the cytoplasm, dose response: significant increases in fluorescence
RBL-2H3 cell line; 1 mM chelate, 2 h, Table 4
  Fluorescence/mg Cytoplasm: 4415
  Fluorescence/mg Membrane: 2644
[3]; Normal 1
  Fluorescence/mg Cytoplasm: 1344
  Fluorescence/mg Membrane: 1348
[3]; Normal 2
  Fluorescence/mg Cytoplasm: 1369
  Fluorescence/mg Membrane: 1374
C33-A cells [4]; 2 min
  EuQCTME Cell Binding (fluorescence per well): 2,967
C33-A cells [4]; 5 min
  EuQCTME Cell Binding (fluorescence per well): 22,763
C33-A cells [4]; 15 min
  EuQCTME Cell Binding (fluorescence per well): 5,075
C33-A cells [4]; 30 min
  EuQCTME Cell Binding (fluorescence per well): 2,923
C33-A cells [4]; 45 min
  EuQCTME Cell Binding (fluorescence per well): 7,030
C33-A cells [4]; 60 min
  EuQCTME Cell Binding (fluorescence per well): 583
C33-A cells [4]; 120 min
  EuQCTME Cell Binding (fluorescence per well): 1,275
C33-A cells [4]; 180 min
  EuQCTME Cell Binding (fluorescence per well): 2,377
C33-A cells [4]; 240 min
  EuQCTME Cell Binding (fluorescence per well): 1,322
C33-A cells [4]; over 240 min
  Totals: Normalized total area under each curve (AUC): 9
Caco-2 cells [5]
  localization by confocal microscopy: predominantly cytoplasmic localization
HLAC cells [6]
  nuclear signal: rapidly declined after an apparent initial burst
C33-A cells [7]
  nuclear signal: very low
DU-145 cells
  nuclear and cytoplasmic fluorescence: approximately 40 pg EuQCTME per μg protein
SK-MES cells [8]
  nuclear and cytoplasmic fluorescence: approximately 40 pg EuQCTME per μg protein
Caco-2 cells [9]
  nuclear and cytoplasmic fluorescence: approximately 40 pg EuQCTME per μg protein
NCM460 cells
  cytoplasm-associated fluorescence: < 10 pg EuQCTME per μg protein
  nuclear signal: high nuclear signal
Caco-2 cell line; 0-2000 μM, 2 hours
  fluorescence in the membrane fractions, dose response: detectable quantity of fluorescence
Caco-2 cell line; [12]
  fluorescence in the cytoplasm, dose response: significant increases in fluorescence
Caco-2 cell line; 1 mM chelate, 2 h, Table 4
  Fluorescence/mg Cytoplasm: 4339
  Fluorescence/mg Membrane: 2524
SK-MES cells [10]; 2 min
  EuQCTME Cell Binding (fluorescence per well): 21,983
SK-MES cells [10]; 5 min
  EuQCTME Cell Binding (fluorescence per well): 11,756
SK-MES cells [10]; 15 min
  EuQCTME Cell Binding (fluorescence per well): 8,588
SK-MES cells [10]; 30 min
  EuQCTME Cell Binding (fluorescence per well): 7,237
SK-MES cells [10]; 45 min
  EuQCTME Cell Binding (fluorescence per well): 9,513
SK-MES cells [10]; 60 min
  EuQCTME Cell Binding (fluorescence per well): 5,358
SK-MES cells [10]; 120 min
  EuQCTME Cell Binding (fluorescence per well): 8,159
SK-MES cells [10]; 180 min
  EuQCTME Cell Binding (fluorescence per well): 5,682
SK-MES cells [10]; 240 min
  EuQCTME Cell Binding (fluorescence per well): 15,625
SK-MES cells [10]; over 240 min
  Totals: Normalized total area under each curve (AUC): 28
[11]
  fluorescence in the cytoplasm of tumor tissue compared to normal tissue: significantly greater fluorescence
[11]; Tumor 1
  Fluorescence/mg Cytoplasm: 3524
  Fluorescence/mg Membrane: 1670
[11]; Tumor 2
  Fluorescence/mg Cytoplasm: 3659
  Fluorescence/mg Membrane: 1676
T84 cell line
  Fluorescence/mg Cytoplasm: 4548
  Fluorescence/mg Membrane: 2307
